# Test results published in article PMC3317662, “Some Commonly Used Brominated Flame Retardants Cause Ca^2+-ATPase Inhibition, Beta-Amyloid Peptide Release and Apoptosis in SH-SY5Y Neuronal Cells” (PLoS ONE, 2012).
# Biological target: T1, microsomal Ca2+-ATPase (SERCA)
# T1 construct: native enzyme in microsomal membranes isolated from SH-SY5Y cells
# Assay: Ca2+-dependent ATP hydrolysis (phosphate liberation assay) in SH-SY5Y microsomes
# Assay type: biochemical
row,Compound,Ki [µM]
1,CC(C)(c1cc(Br)c(O)c(Br)c1)c1cc(Br)c(O)c(Br)c1 [Tetrabromobisphenol-A],9 ± 2
2,Brc1c(Br)c(Br)c(Oc2c(Br)c(Br)c(Br)c(Br)c2Br)c(Br)c1Br [decabromodiphenyl ether],41 ± 7
3,BrC1CCC(Br)C(Br)CCC(Br)C(Br)CCC1Br (stereo not drawn) [hexabromocyclododecane],3.5 ± 1.2
